Measurements reported in the NIST ThermoML archive (doi:10.1016/j.jct.2015.02.004).
± gives the expanded uncertainty stated by the source.

Conditions: 298.15 K; 101.33 kPa; Liquid; Pycnometric method

mass density [kg/m3]	Structure (SMILES)
784.2 ± 1.9	CCO [ethanol]
893.4 ± 2.1	CCOC(C)=O [ethyl acetate]
786.3 ± 1.9	CO [methanol]
780.6 ± 1.9	CC(C)O [propan-2-ol]

The remaining lines, values behind:

Structure (SMILES)	mass density [kg/m3]
COC(C)(C)C [2-methoxy-2-methylpropane]	734.1 ± 1.9
CC(C)=O [acetone]	783.8 ± 1.9
CC#N [acetonitrile]	776.3 ± 1.9
CCCCO [butan-1-ol]	805.5 ± 2
